For 2 molecules, IC50 results are on record in BindingDB's records for doi:10.1016/j.bmcl.2007.02.040 (Merck Research Laboratories, 2007).

In general, IC50 refers to the concentration at which inhibition is half-maximal. Lower therefore signals inhibition by little substance.

The target in the assay is Dipeptidyl peptidase 4 (Homo sapiens, UniProt P27487). Kind of assay: Dipeptidyl Peptidase Inhibition Assay. The following applies: pH 7.5; 37 °C.
Chain of Dipeptidyl peptidase 4 (P27487 whole entry): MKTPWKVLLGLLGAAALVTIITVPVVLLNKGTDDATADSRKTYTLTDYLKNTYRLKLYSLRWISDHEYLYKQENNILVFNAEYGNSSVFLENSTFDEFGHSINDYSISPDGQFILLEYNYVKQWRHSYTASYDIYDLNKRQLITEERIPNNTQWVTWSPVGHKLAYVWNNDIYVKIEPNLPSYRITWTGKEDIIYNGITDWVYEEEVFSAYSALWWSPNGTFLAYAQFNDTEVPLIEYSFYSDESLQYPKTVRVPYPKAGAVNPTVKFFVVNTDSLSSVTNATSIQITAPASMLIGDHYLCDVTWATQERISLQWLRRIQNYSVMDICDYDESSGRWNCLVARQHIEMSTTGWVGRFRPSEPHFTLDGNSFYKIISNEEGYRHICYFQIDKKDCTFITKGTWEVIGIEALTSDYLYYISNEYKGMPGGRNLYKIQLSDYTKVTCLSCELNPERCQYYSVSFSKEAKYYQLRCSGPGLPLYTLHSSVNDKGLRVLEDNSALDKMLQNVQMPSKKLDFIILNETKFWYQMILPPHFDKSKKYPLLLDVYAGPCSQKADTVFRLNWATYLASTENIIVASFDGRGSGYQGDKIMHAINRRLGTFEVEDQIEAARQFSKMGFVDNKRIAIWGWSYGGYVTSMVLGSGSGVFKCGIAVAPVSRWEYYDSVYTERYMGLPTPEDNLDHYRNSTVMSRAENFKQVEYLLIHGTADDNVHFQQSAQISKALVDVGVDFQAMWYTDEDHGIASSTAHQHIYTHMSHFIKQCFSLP

On to `C[C@H](C(=O)N1CCOCC1)[C@@H](C(=O)N(C)C)c1ccc(-c2ccc(F)cc2)cc1` [(2R,3S)-2-[4-(4-fluorophenyl)phenyl]-N,N,3-trimethyl-4-(morpholin-4-yl)-4-oxobutanamide], for which the IC50 was determined as 520 nM.
Then `CC(C)[C@H](Oc1ccc(CNC(=O)[C@@H]2CCCN2C(=O)C[C@H](N)Cc2c(F)c(F)c(F)c(F)c2F)cc1)C(=O)O` [(2S)-2-[4-({[(2S)-1-[(3R)-3-amino-4-(2,3,4,5,6-pentafluorophenyl)butanoyl]pyrrolidin-2-yl]formamido}methyl)phenoxy]-3-methylbutanoic acid], with 8 nM.
